System: NF-κ B
Test: Inhibitory activity of NF-κ B activation, luciferase reporter assay in HepG2 under TNF-α stimulation
Assay type: cell-based, human
Conditions: HepG2, TNF-α (40 ng/ml), 4 hours; for inhibition at 1 µg/mL / inhibition at 10 µg/mL: Homo sapiens; for Inhibitory Ratio of NF-κ B Activation(%) Drug Concentration 1 μg/mL / inhibition at 1 µg/mL: 1 μg/mL; for inhibition at 1 µg/mL: read-out: Inhibitory Ratio of NF-κ B Activation(%) Drug Concentration 1 μg/mL; for Inhibitory Ratio of NF-κ B Activation(%) Drug Concentration 10 μg/mL / inhibition at 10 µg/mL: 10 μg/mL; for inhibition at 10 µg/mL: read-out: Inhibitory Ratio of NF-κ B Activation(%) Drug Concentration 10 μg/mL
Description: Using a transfection reagent(Effectene; QIAGEN), the human hepatoma cell strain HepG2 was transfected with a plasmid(pNF κ B-Luc Reporter Plasmid; […]) which is integrated with an oligonucleotide having five tandem copies of NF-κ B binding sequences([…]) on a upstream region of firefly luciferase gene(Luc) according to the QIAGEN's protocol, and the cells were incubated for 6 to 24 hours. After the addition of TNF-α (40 ng/ml) in the presence or absence of a test compound, the cells were incubated for 4 hours, and intracellular luciferase activity was measured by using PicaGene LT (TOYO INK MFG Co., Ltd.) and a chemical luminescence measurement apparatus ([…]luor Plus; TECAN). The inhibitory ratio was measured as a ratio relative to the value of a luciferase activity in the absence of the test compound.

Row | Compound | Inhibitory Ratio of NF-κ B Activation(%) Drug Concentration 1 μg/mL | Inhibitory Ratio of NF-κ B Activation(%) Drug Concentration 10 μg/mL | inhibition at 1 µg/mL | inhibition at 10 µg/mL
1 | O=C(Nc1cc(Cl)cc(Cl)c1)c1cc(Br)ccc1O [Compound No. 126] | 77.1% | 92.8% | – | –
2 | O=C(Nc1cc(C(F)(F)F)ccc1OCC(F)(F)F)c1cc(Cl)ccc1O [Compound No. 113] | 90.5% | 96.2% | – | –
3 | O=C(Nc1cc(Cl)cc(Cl)c1)c1cc(F)ccc1O [Compound No. 124] | 94.2% | 97.0% | – | –
4 | O=C(Nc1cc([N+](=O)[O-])ccc1Cl)c1cc(Cl)ccc1O [Compound No. 156] | 93.8% | 95.7% | – | –
5 | COC(=O)c1cc(NC(=O)c2cc(Cl)ccc2O)cc(C(F)(F)F)c1 [Compound No. 108, 5-chloro-2-hydroxy-N-[3-methoxycarbonyl-5-(trifluoromethyl)phenyl]benzamide] | – | – | 41.5% | 88.4%
6 | O=C(Nc1cc(C(F)(F)F)cc(C(F)(F)F)c1)c1ccc(-c2ccccc2)cc1O [Compound No. 262, N-[3,5-Bis(trifluoromethyl)phenyl]-2-hydroxy-4-phenylbenzamide] | – | – | > 99.9% | –
7 | O=C(Nc1nc(-c2cccc(C(F)(F)F)c2)cs1)c1cc(Cl)ccc1O [Compound No. 265, 5-Chloro-2-hydroxy-N-{4-[3-(trifluoromethyl)phenyl]thiazol-2-yl}benzamide] | – | – | > 99.9% | –
8 | O=C(Nc1nnc(C(F)(F)F)s1)c1ccccc1O [Compound No. 237, 2-Hydroxy-N-(5-trifluoromethyl-1,3,4-thiadiazol-2-yl)benzamide] | – | – | – | 81.9%
9 | CCOC(=O)c1sc(NC(=O)c2cc(Br)ccc2O)nc1C(F)(F)F [Compound No. 224] | 87.6% | 96.5% | – | –
10 | COc1ccc(OC)c(NC(=O)c2cc(Br)ccc2O)c1 [Compound No. 142] | 32.4% | 95.7% | – | –
11 | CC(C)(C)CC(C)(C)c1ccc(O)c(C(=O)Nc2cc(C(F)(F)F)cc(C(F)(F)F)c2)c1 [Compound No. 60] | 94.0% | 99.1% | – | –
12 | O=C(Nc1cc(C(F)(F)F)cc(C(F)(F)F)c1)c1ccc(O)cc1O [Compound No. 55] | 10.8% | 88.6% | – | –
13 | O=C(Nc1cc(Cl)cc(Cl)c1)c1c(O)ccc2ccccc12 [Compound No. 182] | 85.3% | 90.2% | – | –
14 | COc1ccc(C(C)(C)C)cc1NC(=O)c1cc(C)ccc1O [Compound No. 149] | 37.4% | 87.1% | – | –
15 | CC(C)CCOc1ccc(OCCC(C)C)c(NC(=O)c2cc(Cl)ccc2O)c1 [Compound No. 162] | 93.8% | 97.9% | – | –
16 | CC(=NOCc1ccccc1)c1ccc(O)c(C(=O)Nc2cc(C(F)(F)F)cc(C(F)(F)F)c2)c1 [Compound No. 15] | 94.5% | 99.2% | – | –
17 | COc1ccc(C(C)(C)C)cc1NC(=O)c1cc(Cl)ccc1OC(C)=O [Compound No. 136] | 91.0% | 99.4% | – | –
18 | CC(=O)c1sc(NC(=O)c2cc(Br)ccc2O)nc1-c1ccccc1 [Compound No. 214, 5-Bromo-N-(5-acetyl-4-phenylthiazol-2-yl)-2-hydroxybenzamide] | – | – | 70.2% | 95.9%
19 | O=C(Nc1cc(C(F)(F)F)ccc1Br)c1cc(Cl)ccc1O [Compound No. 107] | 94.9% | 96.2% | – | –
20 | Cc1cc(Oc2ccc(C(F)(F)F)cc2NC(=O)c2cc(Cl)ccc2O)cc(C)c1Cl [Compound No. 115] | 90.7% | 98.4% | – | –
21 | O=C(Nc1cc(C(F)(F)F)cc(C(F)(F)F)c1)c1ccc(F)cc1O [Compound No. 250] | 94.2% | 95.4% | – | –

Row | Compound | Inhibitory Ratio of NF-κ B Activation(%) Drug Concentration 1 μg/mL | Inhibitory Ratio of NF-κ B Activation(%) Drug Concentration 10 μg/mL | inhibition at 1 µg/mL | inhibition at 10 µg/mL
22 | COc1ccc(C(C)(C)c2ccccc2)cc1NC(=O)c1cc(Cl)ccc1O [Compound No. 173] | 86.4% | 98.3% | – | –
23 | CCCCCCOc1ccc(S(C)(=O)=O)cc1NC(=O)c1cc(Cl)ccc1O [Compound No. 165] | 95.9% | 99.4% | – | –
24 | O=C(Nc1nc(-c2cc(F)ccc2F)cs1)c1cc(Cl)ccc1O [Compound No. 263, 5-Chloro-2-hydroxy-N-[4-(2,5-difluorophenyl)thiazol-2-yl]benzamide] | – | – | > 99.9% | –
25 | O=C(Nc1cc(C(F)(F)F)cc(C(F)(F)F)c1)c1cc2ccccc2cc1O [Compound No. 72] | 94.6% | 95.0% | – | –
26 | CC(=O)c1ccc(O)c(C(=O)Nc2cc(C(F)(F)F)cc(C(F)(F)F)c2)c1 [Compound No. 12, 5-acetyl-N-[3,5-bis(trifluoromethyl)phenyl]-2-hydroxybenzamide] | – | – | 86.3% | 99.2%
27 | Cc1ccc(O)c(C(=O)Nc2cc(C(F)(F)F)ccc2Cl)c1 [Compound No. 100] | 85.6% | 95.1% | – | –
28 | O=C(Nc1cc(C(F)(F)F)cc(C(F)(F)F)c1)c1ccc(O)c(C(=O)Nc2cc(C(F)(F)F)cc(C(F)(F)F)c2)c1 [Compound No. 37] | – | 94.5% | – | –
29 | CC(C)(C)c1ccc(C(C)(C)C)c(NC(=O)c2cc(Cl)ccc2O)c1 [Compound No. 134] | 89.1% | 96.3% | – | –
30 | O=C(Nc1cc(Cl)cc(Cl)c1)c1cc([N+](=O)[O-])ccc1O [Compound No. 130] | – | 70.6% | – | –
31 | CC(C)(C)c1nc(NC(=O)c2cc(Br)ccc2O)sc1N1CCCCC1 [Compound No. 204, 5-Bromo-N-{4-[(1,1-dimethyl)ethyl]-5-piperidinothiazol-2-yl)-2-hydroxybenzamide] | – | – | 93.6% | 97.8%
32 | O=C(Nc1cc(C(F)(F)F)ccc1Oc1ccc(Cl)cc1)c1cc(Cl)ccc1O [Compound No. 118] | 95.0% | 99.5% | – | –
33 | N#CC(C#N)=Cc1ccc(O)c(C(=O)Nc2cc(C(F)(F)F)cc(C(F)(F)F)c2)c1 [Compound No. 16, N-[3,5-Bis(trifluoromethyl)phenyl]-5-(2,2-dicyanoethen-1-yl)-2-hydroxybenzamide] | – | – | 42.7% | 99.4%
34 | O=C(Nc1cc(C(F)(F)F)cc(C(F)(F)F)c1)c1cc(NC(=S)Nc2ccccc2)ccc1O [Compound No. 47] | 51.8% | 97.2% | – | –
35 | COc1ccc(O)c(C(=O)Nc2cc(C(F)(F)F)ccc2Cl)c1 [Compound No. 101] | 17.7% | 82.0% | – | –
36 | CSc1ccc(C(F)(F)F)cc1NC(=O)c1cc(Cl)ccc1O [Compound No. 96] | 94.6% | 99.1% | – | –
37 | CC(C)(C)c1cc(NC(=O)c2cc([N+](=O)[O-])ccc2O)cc(C(C)(C)C)c1 [Compound No. 146] | 91.2% | 98.5% | – | –
38 | O=C(Nc1cc(C(F)(F)F)cc(C(F)(F)F)c1)c1cc(S(=O)(=O)n2cccc2)ccc1O [Compound No. 42, N-[3,5-Bis(trifluoromethyl)phenyl]-2-hydroxy-5-(pyrrole-1-sulfonyl)benzamide] | – | – | 84.4% | 98.1%
39 | CC(C)(C)c1cc(NC(=O)c2cc(Cl)ccc2O)cc(C(C)(C)C)c1 [Compound No. 138, N-{3,5-bis[(1,1-dimethyl)ethyl]phenyl}-5-chloro-2-hydroxybenzamide] | – | – | 89.6% | 98.1%
40 | N#Cc1ccc(Cl)cc1NC(=O)c1cc(Cl)ccc1O [Compound No. 154] | 83.0% | 93.3% | – | –
41 | O=C(Nc1cc(F)cc(F)c1)c1cc(Cl)ccc1O [Compound No. 180] | 90.7% | 93.7% | – | –
